Experiments:
[1] = target: T1, mu receptor-β-arrestin 2 interaction (Homo sapiens, UniProt P35372); experiment: BRET mu-β-arrestin 2 interaction assay (living SH-SY5Y cells, mu-RLuc/β-arrestin 2-RGFP), agonism; settings: BRET mu-β-arrestin 2; Inactive: Emax < 0.10; analog 6 obtained by forcing the Emax to 1
Experimental: (§1) SH-SY5Y cells stably co-expressing the fusoproteins mu-RLuc and Gβ1-RGFP or mu-RLuc and β-arrestin 2-RGFP were grown in DMEM/F12 (1:1) medium supplemented with 10% FBS, 2 mM L-Glutamine, 100 μg/mL hygromycin B, 400 μg/mL G418, 100 units/mL penicillin G, 100 μg/mL streptomycin and 1 μg/mL Fungizone at 37°C in a humidified atmosphere with of 5% CO2.
Mu- β-arrestin 2 interaction—Living SH-SY5Y cells expressing mu-RLuc and β-arrestin 2-RGFP were seeded at a cell density of 100,000 cells/well 24 h prior to the test. On the day of the experiment, medium was discarded, and cells were washed with PBS supplemented with 0.5 mM MgCl2, 0.9 mM CaCl2. Cells were subsequently incubated with 2 μM Prolume Purple Coelenterazine (NanoLight Technology, White Mountain, AZ; United States) for 10 min before bioluminescence reading.
(§2) In agonism experiments, ligands were added and incubated for 5 min before microplate reading. […] BRET ratios were computed as follow: RGFPCPS/RLucCPSligand−RGFPCPS/RLucCPSvehicle
(§3) Concentration-response curves to agonists were fitted to the four-parameter logistic non-linear regression model as follows: Effect=Basal+Emax−Basal/1+10^LogEC50−Logligand×HillSlope

[2] = target: T1, mu receptor-β-arrestin 2 interaction; experiment: cell-based; design: expressed in transfected cells; settings: read-out: pKb (CL95%) (converted)
Experimental: In antagonism experiments, a 10 min preincubation with vehicle or fixed concentrations of ligand preceded the injection of increasing concentrations of EM-2.
Antagonist potencies (pKb) were computed applying the following equation: pKb = (log (CR − 1)) − log [Anta] with CR as the ratio between agonist potency (molar) in the presence and absence of antagonist and [Anta] is the molar concentration of antagonist. pKb represents the concentration of antagonist that occupies half of the receptor population at equilibrium, expressed in molar units.

[3] = target: T2, human mu receptor (Homo sapiens, UniProt P35372); experiment: Calcium mobilization assay, CHO mu cells expressing Gαqi5; type: cell-based; settings: for mu α±SEM: intrinsic activity, Emax ratio to standard agonist EM-2, inactive = inactive up to 10 µM
T2 construct: expressed in transfected cells; host or cells: CHO cells stably co-expressing Gαqi5

[4] = n-Octanol/water partition coefficient (log P); type: physicochemical; settings: n-octanol / 0.05 M HEPES buffer in 0.1 M NaCl, pH 7.4
Experimental: Determination of log P was performed according to the method described by ([Liu et al., 2006]). Peptides were dissolved in 0.05 M HEPES buffer in 0.1 M NaCl, pH 7.4, then an equal volume of n-octanol was added and mixtures were vortexed for 2 min. Samples were centrifuged at 4,000 rpm for 1 min. After separation, aqueous and octanol phases were used to quantify peptide content by RP-HPLC.
Octanol phase was lyophilized and reconstituted in 80% acetonitrile in water containing 0.1% TFA before RP-HPLC. All n-octanol/buffer distribution studies were performed in triplicate.

[5] = target: T3, delta-opioid receptor (Homo sapiens, UniProt P41143); experiment: Radioligand binding, [3H]deltorphin-2 displacement, CHO cell membranes; design: purchased; host or cells: CHO cells (membranes)
[6] = Enzymatic degradation in rat brain homogenate; type: in vitro ADME; settings: 37°C; for 100 x k, rate constant of degradation: up to 60 min; for half-life at 0.25 mM: rat, pH 7.4, rat brain homogenate, read-out: t1/2, degradation half-life
Experimental: Enzymatic degradation of EM-2 and the analogs was performed measuring their hydrolysis rates in the presence of rat brain homogenate. The homogenate was prepared prior to the experiment. Briefly, rat brains were homogenized in 20 volumes of Tris–HCl (50 mM, pH 7.4) using a Polytron and the obtained aliquots were stored at −80°C. In the experiment, aliquotes of brain homogenate (100 μL, 10 mg protein/mL) were incubated with 100 µL of a peptide (0.5 mM) over 0, 7.5; 15, 22.5; 30, and 60 min at 37°C, in a final volume of 200 µL. After the incubation the degradation reaction was stopped by placing the tube on ice and acidifying the content with 20 µL of HCl (1 M). The aliquots were centrifuged at 20,000 g for 10 min at 4°C. The supernatants were collected and filtered using Millex-GV syringe filters (Millipore). Then the analysis by HPLC on a Vydac C18 column (5 μm, 4.6 × 250 mm), using the solvent system of 0.1% TFA in water (A) and 80% acetonitrile in water containing 0.1% TFA (B) and a linear gradient of 0%–100% B over 25 min, was performed. Three independent experiments for each assay were carried out in duplicate. The rate constants of degradation (k) were obtained by the least square linear regression analysis of logarithmic peak areas [ln (A/AD)], where A—amount of remained peptide, AD—initial amount of peptide versus time. Degradation half-lives (t1/2) were calculated from the rate constants as ln2/k.

[7] = target: T3, delta-opioid receptor; experiment: Calcium mobilization assay, CHO delta cells expressing GαqG66Di5; type: cell-based; design: expressed in transfected cells; host or cells: CHO cells co-expressing GαqG66Di5; settings: for Delta pEC50 (CL95%): calcium mobilization; for Delta pEC50 (CL95%) / Delta α± SEM: inactive = inactive up to 10 µM; for Delta α± SEM: intrinsic activity, Emax ratio to standard agonist DPDPE
[8] = target: T4, human recombinant mu opioid receptor (Homo sapiens, UniProt P35372); experiment: Radioligand binding, [3H]DAMGO displacement, CHO cell membranes
T4 construct: purchased; host or cells: CHO cells (membranes)

[9] = target: T5, human kappa receptor (Homo sapiens, UniProt P41145); experiment: Calcium mobilization assay, CHO kappa cells expressing Gαqi5; type: cell-based; settings: inactive = inactive up to 10 µM; for Kappa pEC50 (CL95%): calcium mobilization; for Kappa α± SEM: intrinsic activity, Emax ratio to standard agonist dynorphin A
T5 construct: expressed in transfected cells; host or cells: CHO cells stably co-expressing Gαqi5

[10] = target: mu receptor-G protein interaction (Homo sapiens, UniProt P35372); experiment: BRET mu-G protein interaction assay (membranes of SH-SY5Y cells, mu-RLuc/Gβ1-RGFP)
Experimental: as §1
Total protein in membrane preparations was determined by colorimetric method with the Quantum Protein-BCA kit (EuroClone, Pero (MI), IT) and measured using the multiplate reader Victor Nivo (PerkinElmer, Walthman, MA, United States). White opaque 96 wells microplates (PerkinElmer, Walthman, MA, United States) were used to carry out BRET assays. Cell membranes were thawed and resuspended in PBS supplemented with 0.02% BSA before the assay, and an amount of 5 μg of total protein was dispensed in each 96 well. All experiments were carried out at room temperature.
as §2, §3

[11] = target: T6, human recombinant kappa opioid receptor (Homo sapiens, UniProt P41145); experiment: Radioligand binding, [3H]U-69593 displacement, CHO cell membranes
T6 construct: purchased; host or cells: CHO cells (membranes)

[12] = ref Bergese et al., 2019, cited from earlier work

T5 sequence (P41145 whole entry): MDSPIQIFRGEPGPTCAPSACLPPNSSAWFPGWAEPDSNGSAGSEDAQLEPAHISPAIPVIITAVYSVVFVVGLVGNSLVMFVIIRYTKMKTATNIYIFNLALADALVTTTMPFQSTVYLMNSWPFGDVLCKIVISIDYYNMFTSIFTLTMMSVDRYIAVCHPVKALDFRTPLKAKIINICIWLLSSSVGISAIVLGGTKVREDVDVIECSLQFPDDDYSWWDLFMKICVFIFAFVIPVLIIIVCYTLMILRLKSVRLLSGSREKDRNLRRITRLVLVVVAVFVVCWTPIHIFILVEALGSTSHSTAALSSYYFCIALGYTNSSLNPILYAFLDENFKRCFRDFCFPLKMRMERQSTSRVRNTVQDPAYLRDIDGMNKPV
T6 sequence (P41145 whole entry): as above
T2 sequence (P35372 whole entry): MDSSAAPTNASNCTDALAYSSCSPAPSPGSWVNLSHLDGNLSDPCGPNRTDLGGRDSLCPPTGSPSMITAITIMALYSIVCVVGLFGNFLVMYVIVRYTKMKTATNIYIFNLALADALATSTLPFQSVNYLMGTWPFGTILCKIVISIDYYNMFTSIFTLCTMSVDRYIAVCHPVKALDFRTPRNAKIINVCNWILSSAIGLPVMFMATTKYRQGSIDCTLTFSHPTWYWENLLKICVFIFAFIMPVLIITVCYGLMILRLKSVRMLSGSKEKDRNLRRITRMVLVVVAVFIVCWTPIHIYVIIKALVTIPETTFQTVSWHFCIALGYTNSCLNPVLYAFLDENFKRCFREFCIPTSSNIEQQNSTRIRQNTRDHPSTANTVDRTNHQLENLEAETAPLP
T1 sequence (P35372 whole entry): as above
Sequence of mu receptor-G protein interaction (P62871 whole entry): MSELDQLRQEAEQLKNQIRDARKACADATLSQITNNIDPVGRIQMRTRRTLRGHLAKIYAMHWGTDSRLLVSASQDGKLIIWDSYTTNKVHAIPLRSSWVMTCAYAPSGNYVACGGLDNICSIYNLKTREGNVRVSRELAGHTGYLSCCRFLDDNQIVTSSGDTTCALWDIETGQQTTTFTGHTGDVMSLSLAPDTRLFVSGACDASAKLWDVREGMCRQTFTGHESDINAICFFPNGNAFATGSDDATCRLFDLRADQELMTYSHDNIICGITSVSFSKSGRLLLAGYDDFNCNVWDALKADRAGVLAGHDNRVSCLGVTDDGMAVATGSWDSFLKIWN
Sequence of mu receptor-G protein interaction (P35372 whole entry): as the sequence (P35372 whole entry) above
T3 sequence (P41143 whole entry): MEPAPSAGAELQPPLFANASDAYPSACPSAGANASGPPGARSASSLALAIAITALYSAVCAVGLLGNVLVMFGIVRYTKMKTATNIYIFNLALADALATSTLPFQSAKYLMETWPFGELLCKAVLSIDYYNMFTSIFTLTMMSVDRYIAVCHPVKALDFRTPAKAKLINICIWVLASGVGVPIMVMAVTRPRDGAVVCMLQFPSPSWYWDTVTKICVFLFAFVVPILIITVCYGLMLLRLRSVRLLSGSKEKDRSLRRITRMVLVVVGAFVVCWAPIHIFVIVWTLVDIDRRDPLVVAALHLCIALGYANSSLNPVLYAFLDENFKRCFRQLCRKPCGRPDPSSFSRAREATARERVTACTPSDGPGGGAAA
T4 sequence (P35372 whole entry): as the sequence (P35372 whole entry) above

| Structure (SMILES) | β-Arrestin 2 pEC50 (CL95%) [1] | Kb [2] [nM] | EC50 [3] [nM] | mu α±SEM [3] | logD [4] | Ki [5] [nM] | 100 x k, rate constant of degradation [6] [per min] | half-life at 0.25 mM ([6]; ln2/k) [h] | Delta pEC50 (CL95%) [7] | Delta α± SEM [7] | Ki [8] [nM] | Kappa pEC50 (CL95%) [9] | Kappa α± SEM [9] | EC50 [10] [nM] | Ki [11] [nM] | EC50 [7] [nM] | patients with lack of efficacy ([12]; moderate to severe acute pain in adults) | patients who experienced some adverse effects (vomiting, nausea, headache, or constipation) [12] [%] | t1/2, degradation half-life ([6]; ln2/k) [h] |
| --- | --- | --- | --- | --- | --- | --- | --- | --- | --- | --- | --- | --- | --- | --- | --- | --- | --- | --- | --- |
| NC(=O)[C@H](Cc1ccccc1)NC(=O)[C@H](Cc1ccccc1)NC(=O)[C@H]1CCCCN1C(=O)[C@@H](N)Cc1ccc(O)cc1 [analog 2, Tyr-(R)-Pip-Phe-Phe-NH2] | Inactive | 170 | 58.9 | 0.64 ± 0.04 | 2.3 | 682 ± 33 | 0.57 ± 0.08 | 2.02 ± 0.0517 | inactive | inactive | 17.7 ± 1.14 | inactive | inactive | 38 | > 1000 | – | – | – | – |
| Cc1cc(O)cc(C)c1C[C@H](N)C(=O)N1CCCC[C@@H]1C(=O)N[C@@H](Cc1ccccc1)C(=O)N[C@@H](Cc1ccccc1)C(N)=O [analog 3, Dmt-(R)-Pip-Phe-Phe-NH2] | Inactive | 0.0794 | 1.51 | 0.70 ± 0.03 | 2.49 | 37 ± 5 | 0.73 ± 0.07 | 1.57 ± 0.0467 | – | 0.56 ± 0.05 | 3.92 ± 0.5 | inactive | inactive | 1.91 | 72 ± 6 | 148 | – | – | – |
| COc1ccsc1CNCC[C@@]1(c2ccccn2)CCOC2(CCCC2)C1 [oliceridine, [(3-methoxythiophen-2-yl)methyl]({2-[(9R)-9-(pyridin-2-yl)-6-oxaspiro-[4.5]decan-9-yl]ethyl})amine] | – | – | – | – | – | – | – | – | – | – | – | – | – | – | – | – | less than 5% | 64 | – |
| NC(=O)[C@H](Cc1ccccc1)NC(=O)[C@@H](CNC(=O)[C@@H]1CCCN1C(=O)[C@@H](N)Cc1ccc(O)cc1)Cc1cccc2ccccc12 [analog 10, Tyr-Pro-(R)-β ^ 2 -1-Nal-Phe-NH2] | Inactive | 631 | – | 0.25 ± 0.06 | 2.5 | > 1000 | 0.41 ± 0.02 | 2.8 | inactive | inactive | – | inactive | inactive | 105 | > 1000 | – | – | – | 2.805 ± 0.0917 |
| Cc1cc(O)cc(C)c1C[C@H](N)C(=O)N1CCC[C@H]1C(=O)NC[C@@H](Cc1cccc2ccccc12)C(=O)N[C@@H](Cc1ccccc1)C(N)=O [analog 11, Dmt-Pro-(R)-β ^ 2 -1-Nal-Phe-NH2] | Inactive | 0.398 | 9.77 | 0.57 ± 0.05 | 2.71 | – | 0.56 ± 0.02 | 2.05 ± 0.0983 | inactive | inactive | – | inactive | inactive | 4.9 | > 1000 | – | – | – | – |

Reference: publication PMC9998502, “Functional selectivity of EM-2 analogs at the mu-opioid receptor” (Frontiers in Pharmacology, 2023)
